The target of the test is T1, mGlyT-1b (Mus musculus, UniProt P28571).
T1 construct: host or cells: Flp-in-CHO
T1 sequence (P28571 1-651 isoform P28571-2): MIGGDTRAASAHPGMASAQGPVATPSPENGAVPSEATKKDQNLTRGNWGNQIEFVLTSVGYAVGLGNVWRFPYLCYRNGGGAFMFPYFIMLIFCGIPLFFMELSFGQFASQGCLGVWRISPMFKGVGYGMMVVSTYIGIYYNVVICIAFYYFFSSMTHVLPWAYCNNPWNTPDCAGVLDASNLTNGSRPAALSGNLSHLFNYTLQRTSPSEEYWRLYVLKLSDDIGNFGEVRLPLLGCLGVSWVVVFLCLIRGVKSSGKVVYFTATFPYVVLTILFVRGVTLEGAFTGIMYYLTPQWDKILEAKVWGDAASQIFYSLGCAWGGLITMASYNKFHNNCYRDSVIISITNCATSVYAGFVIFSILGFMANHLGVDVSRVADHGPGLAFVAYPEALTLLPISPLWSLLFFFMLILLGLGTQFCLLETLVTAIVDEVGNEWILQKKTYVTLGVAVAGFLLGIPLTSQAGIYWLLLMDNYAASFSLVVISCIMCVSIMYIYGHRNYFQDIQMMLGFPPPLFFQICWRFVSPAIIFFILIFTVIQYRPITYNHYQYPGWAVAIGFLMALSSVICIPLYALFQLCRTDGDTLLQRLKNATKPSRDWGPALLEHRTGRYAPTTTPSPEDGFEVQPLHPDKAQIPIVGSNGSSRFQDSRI
The test is described as follows: Glycine uptake inhibition assay (mGlyT-1b). The conditions noted are these: inhibition of [3H]-glycine uptake in Flp-in-CHO cells transfected with mGlyT-1b cDNA; 20 min preincubation at 22° C.; read-out: IC50 (μM) at GlyT-1. It counts as cell-based. A digest of the protocol:
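Flp-in CHO cells stably expressing mouse GlyT-1b were preincubated with inhibitor (concentration range) for 20 min at 22° C. in pH 7.4 uptake buffer; nonspecific uptake defined with 10 mM glycine. [3H]-glycine 60 nM plus 25 μM unlabelled glycine was then added; cell-associated radioactivity counted by scintillation and IC50 derived.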

We go through 24 compounds from patent publication US8188139B2, “Heterocyclic-substituted phenyl methanones” (Hoffman-La Roche Inc., priority 2005, dated 2012).

Each structure is given as a SMILES string.

Consider `C[C@H](Oc1ccc(S(C)(=O)=O)cc1C(=O)N1Cc2cc(Cl)c(OC3CCOCC3)cc2C1)C(F)(F)F` [Example 375, [5-Chloro-6-(tetrahydro-pyran-4-yloxy)-1,3-dihydro-isoindol-2-yl]-[5-methanesulfonyl-2-((S)-2,2,2-trifluoro-1-methyl-ethoxy)-phenyl]-methanone], for which the IC50 is 0.015 µM.
Turning to `C[C@H](Oc1ccc(S(C)(=O)=O)cc1C(=O)N1Cc2cc(F)c(C(F)(F)F)cc2C1)C(F)(F)F` [Example 224, (5-Fluoro-6-trifluoromethyl-1,3-dihydro-isoindol-2-yl)-[5-methanesulfonyl-2-((S)-2,2,2-trifluoro-1-methyl-ethoxy)-phenyl]-methanone], the IC50 was found to be 0.019 µM.
Turning to `C[C@H](Oc1ccc(S(C)(=O)=O)cc1C(=O)N1Cc2ccc(C3CCCOC3)cc2C1)C(F)(F)F` (mixture of isomers) [Example 312, [5-Methanesulfonyl-2-((S)-2,2,2-trifluoro-1-methyl-ethoxy)-phenyl]-[5-(tetrahydro-pyran-3-yl)-1,3-dihydro-isoindol-2-yl]-methanone], the IC50 stood at 0.032 µM.
Consider `Cc1cc2c(cc1Cl)CN(C(=O)c1cc(S(C)(=O)=O)ccc1O[C@@H](C)C(F)(F)F)C2` [Example 24, (5-Chloro-6-methyl-1,3-dihydro-isoindol-2-yl)-[5-methanesulfonyl-2-((S)-2,2,2-trifluoro-1-methyl-ethoxy)-phenyl]-methanone], for which the IC50 amounted to 0.019 µM.
On to `COc1cc2c(cc1C(F)(F)F)CN(C(=O)c1cc(S(C)(=O)=O)ccc1O[C@@H](C)C(F)(F)F)C2` [Example 100], for which the 50% inhibitory concentration (IC50) was found to be 0.045 µM.
As to `C[C@H](Oc1ccc(S(C)(=O)=O)cc1C(=O)N1Cc2ccc(-c3cccc(F)c3)cc2C1)C(F)(F)F` [Example 334, [5-(3-Fluoro-phenyl)-1,3-dihydro-isoindol-2-yl]-[5-methanesulfonyl-2-(2,2,2-trifluoro-1-methyl-ethoxy)-phenyl]-methanone], the IC50 was determined as 0.02 µM.
Turning to `C[C@H](Oc1ccc(S(C)(=O)=O)cc1C(=O)N1Cc2ccc(OCC(F)(F)F)cc2C1)C(F)(F)F` [Example 357, [5-Methanesulfonyl-2-((S)-2,2,2-trifluoro-1-methyl-ethoxy)-phenyl]-[5-(2,2,2-trifluoro-ethoxy)-1,3-dihydro-isoindol-2-yl]-methanone], the half-maximal inhibitory concentration (IC50) was 0.03 µM.
To `CS(=O)(=O)c1ccc(OCC(F)(F)C(F)(F)F)c(C(=O)N2Cc3cc(Cl)c(OC4CCOCC4)cc3C2)c1` [Example 380, [5-Chloro-6-(tetrahydro-pyran-4-yloxy)-1,3-dihydro-isoindol-2-yl]-[5-methanesulfonyl-2-(2,2,3,3,3-pentafluoro-propoxy)-phenyl]-methanone] belongs 0.005 µM.
In the case of `Cc1cc2c(cc1Cl)CN(C(=O)c1cc(S(C)(=O)=O)ccc1OCC(C)C)C2` [Example 56, (5-Chloro-6-methyl-1,3-dihydro-isoindol-2-yl)-(2-isobutoxy-5-methanesulfonyl-phenyl)-methanone], the half-inhibitory concentration (IC50) is 0.016 µM.
For `CS(=O)(=O)c1ccc(OCC(F)(F)C(F)(F)F)c(C(=O)N2Cc3ccc(C4CCOC4)cc3C2)c1` (racemic) [Example 361, rac-[5-Methanesulfonyl-2-(2,2,3,3,3-pentafluoro-propoxy)-phenyl]-[5-(tetrahydro-furan-3-yl)-1,3-dihydro-isoindol-2-yl]-methanone], the concentration for half-maximal inhibition (IC50) was determined as 0.002 µM.
Consider `C[C@H](Oc1ccc(S(C)(=O)=O)cc1C(=O)N1Cc2ccc(-n3cccn3)cc2C1)C(F)(F)F` [Example 347], for which the IC50 amounted to 0.043 µM.
To `CC(C)Sc1ccc(S(C)(=O)=O)cc1C(=O)N1Cc2cc(Cl)c(Cl)cc2C1` [Example 16, (5,6-Dichloro-1,3-dihydro-isoindol-2-yl)-(2-isopropylsulfanyl-5-methanesulfonyl-phenyl)-methanone] belongs 0.048 µM; to `Cc1cscc1-c1ccc2c(c1)CN(C(=O)c1cc(S(C)(=O)=O)ccc1O[C@@H](C)C(F)(F)F)C2` [Example 345], 0.034 µM; to `COC(=O)c1cccc2c1CCN2C(=O)c1cc(S(C)(=O)=O)ccc1OC(C)C` [Example 206, 1-(2-Isopropoxy-5-methanesulfonyl-benzoyl)-2,3-dihydro-1#H!-indole-4-carboxylic acid methyl ester], 0.041 µM.
To `C[C@@H](Oc1ccc(S(C)(=O)=O)cc1C(=O)N1Cc2ccc(C(F)(F)F)cc2C1)C(F)(F)F` [Example 17, [5-Methanesulfonyl-2-((R)-2,2,2-trifluoro-1-methyl-ethoxy)-phenyl]-(5-trifluoromethyl-1,3-dihydro-isoindol-2-yl)-methanone] belongs 0.012 µM; to `CS(=O)(=O)c1ccc(OCC(F)(F)C(F)(F)F)c(C(=O)N2Cc3ccc(OC4CCOCC4)cc3C2)c1` [Example 374, [5-Methanesulfonyl-2-(2,2,3,3,3-pentafluoro-propoxy)-phenyl]-[5-(tetrahydro-pyran-4-yloxy)-1,3-dihydro-isoindol-2-yl]-methanone], 0.003 µM; to `CS(=O)(=O)c1ccc(-c2ccccc2)c(C(=O)N2Cc3cc(Cl)c(N4CCOCC4)cc3C2)c1` [Example 252, (5-Chloro-6-morpho-lin-4-yl-1,3-dihydro-isoindol-2-yl)-(4-methanesulfonyl-biphenyl-2-yl)-methanone], 0.033 µM.
For the compound `C[C@H](Oc1ccc(S(C)(=O)=O)cc1C(=O)N1CCc2c(Br)cccc21)C(F)(F)F` [Example 211, (4-Bromo-2,3-dihydro-indol-1-yl)-[5-methanesulfonyl-2-((S)-2,2,2-trifluoro-1-methyl-ethoxy)-phenyl]-methanone], the IC50 came out at 0.034 µM.
As for `CCSc1cc2c(cc1Cl)CN(C(=O)c1cc(S(C)(=O)=O)ccc1O[C@H](C)C(F)(F)F)C2` [Example 59, (5-Chloro-6-ethylsulfanyl-1,3-dihydro-isoindol-2-yl)-[5-methanesulfonyl-2-((R)-2,2,2-trifluoro-1-methyl-ethoxy)-phenyl]-methanone], the IC50 worked out at 0.036 µM.
Turning to `C[C@H](Oc1ccc(S(C)(=O)=O)cc1C(=O)N1Cc2ccc(-c3cccnc3)cc2C1)C(F)(F)F` [Example 317], the IC50 came out at 0.024 µM.
As to `CNS(=O)(=O)c1ccc(OC(C)C)c(C(=O)N2Cc3ccc(C(F)(F)F)cc3C2)c1` [Example 43, 4-Isopropoxy-N-methyl-3-(5-trifluoromethyl-1,3-dihydro-isoindole-2-carbonyl)-benzenesulfonamide], the IC50 is 0.034 µM.
With `C[C@H](Oc1ccc(S(C)(=O)=O)cc1C(=O)N1Cc2cc(F)c(C3CCOCC3)cc2C1)C(F)(F)F` [Example 366, [5-Fluoro-6-(tetrahydro-pyran-4-yl)-1,3-dihydro-isoindol-2-yl]-[5-methanesulfonyl-2-((S)-2,2,2-trifluoro-1-methyl-ethoxy)-phenyl]-methanone], the half-maximal inhibitory concentration (IC50) worked out at 0.002 µM.
To `CCc1cc2c(cc1C1CCOCC1)CN(C(=O)c1cc(S(C)(=O)=O)ccc1O[C@@H](C)C(F)(F)F)C2` [Example 306, [5-Ethyl-6-(tetrahydro-pyran-4-yl)-1,3-dihydro-isoindol-2-yl]-[5-methanesulfonyl-2-((S)-2,2,2-trifluoro-1-methyl-ethoxy)-phenyl]-methanone] belongs 0.087 µM.
To `Cc1cc2c(cc1C1CCOCC1)CN(C(=O)c1cc(S(C)(=O)=O)ccc1O[C@@H](C)C(F)(F)F)C2` [Example 300] belongs 0.017 µM.

What is called IC50 is the concentration that gives 50% inhibition.
